Experimental data published in patent publication US12691112B2, “FGFR tyrosine kinase inhibitors for the treatment of urothelial carcinoma” (Janssen Pharmaceutica NV, priority 2019, dated 2026).

Tested on: subjects with metastatic or surgically unresectable urothelial cancer
Details: all-causality; 10 mg intermittent, n = 33

SMILES: COc1cc(OC)cc(N(CCNC(C)C)c2ccc3ncc(-c4cnn(C)c4)nc3c2)c1 [erdafitinib, N-(3,5-dimethoxy-phenyl)-N′-(1-methylethyl)-N-[3-(1-methyl-1H-pyrazol-4-yl)quinoxalin-6-yl]ethane-1,2-diamine]
- Decreased appetite, grade ≥ 3: 1 no.
- Diarrhea, any grade: 14 no.
- Diarrhea, grade 1: 7 no.
- Diarrhea, grade 2: 6 no.
- Diarrhea, grade ≥ 3: 1 no.
- Dry eye, any grade: 3 no.
- Dry eye, grade 1: 2 no.
- Dry eye, grade 2: 1 no.
- Dry eye, grade ≥ 3: 0 no.
- Dry mouth, any grade: 16 no.
- Dry mouth, grade 1: 15 no.
- Dry mouth, grade 2: 1 no.
- Dry mouth, grade ≥ 3: 0 no.
- Dry skin, any grade: 9 no.
- Dry skin, grade 1: 8 no.
- Dry skin, grade 2: 1 no.
- Dry skin, grade ≥ 3: 0 no.
- Dysgeusia, any grade: 10 no.
- Dysgeusia, grade 1: 7 no.
- Dysgeusia, grade 2: 3 no.
- Dysgeusia, grade ≥ 3: 0 no.
- Dyspepsia, any grade: 3 no.
- Dyspepsia, grade 1: 2 no.
- Dyspepsia, grade 2: 1 no.
- Dyspepsia, grade ≥ 3: 0 no.
- Dyspnea, any grade: 8 no.
- Dyspnea, grade 1: 3 no.
- Dyspnea, grade 2: 2 no.
- Dyspnea, grade ≥ 3: 3 no.
- Fatigue, any grade: 6 no.
- Fatigue, grade 1: 4 no.
- Fatigue, grade 2: 2 no.
- Fatigue, grade ≥ 3: 0 no.
- Hand-foot syndrome, any grade: 2 no.
- Hand-foot syndrome, grade 1: 0 no.
- Hand-foot syndrome, grade 2: 2 no.
- Hand-foot syndrome, grade ≥ 3: 0 no.
- Hematuria, any grade: 3 no.
- Hematuria, grade 1: 1 no.
- Hematuria, grade 2: 2 no.
- Hematuria, grade ≥ 3: 0 no.
- Hyperphosphatemia, any grade: 16 no.
- Hyperphosphatemia, grade 1: 15 no.
- Hyperphosphatemia, grade 2: 1 no.
- Hyperphosphatemia, grade ≥ 3: 0 no.
- Hypomagnesemia, any grade: 2 no.
- Hypomagnesemia, grade 1: 2 no.
- Hypomagnesemia, grade 2: 0 no.
- Hypomagnesemia, grade ≥ 3: 0 no.
- Hyponatremia, any grade: 2 no.
- Hyponatremia, grade 1: 0 no.
- Hyponatremia, grade 2: 0 no.
- Hyponatremia, grade ≥ 3: 2 no.
- Insomnia, any grade: 3 no.
- Insomnia, grade 1: 0 no.
- Insomnia, grade 2: 3 no.
- Insomnia, grade ≥ 3: 0 no.
- Lacrimation increased, any grade: 6 no.
- Lacrimation increased, grade 1: 5 no.
- Lacrimation increased, grade 2: 1 no.
- Lacrimation increased, grade ≥ 3: 0 no.
- Nail dystrophy, any grade: 2 no.
- Nail dystrophy, grade 1: 2 no.
- Nail dystrophy, grade 2: 0 no.
- Nail dystrophy, grade ≥ 3: 0 no.
- Nausea, any grade: 5 no.
- Nausea, grade 1: 3 no.
- Nausea, grade 2: 2 no.
- Nausea, grade ≥ 3: 0 no.
- Onycholysis, any grade: 7 no.
- Onycholysis, grade 1: 3 no.
- Onycholysis, grade 2: 3 no.
- Onycholysis, grade ≥ 3: 1 no.
- Onychomadesis, any grade: 1 no.
- Onychomadesis, grade 1: 1 no.
- Onychomadesis, grade 2: 0 no.
- Onychomadesis, grade ≥ 3: 0 no.
- Oropharyngeal pain, any grade: 0 no.
- Oropharyngeal pain, grade 1: 0 no.
- Oropharyngeal pain, grade 2: 0 no.
- Oropharyngeal pain, grade ≥ 3: 0 no.
- Pain in extremity, any grade: 5 no.
- Pain in extremity, grade 1: 3 no.
- Pain in extremity, grade 2: 1 no.
- Pain in extremity, grade ≥ 3: 1 no.
- Paronychia, any grade: 2 no.
